Consider 11 compounds from PubChem BioAssay (NCI).

Holding throughout (experiment): NCI anticancer screen, dose series, 48 h
Experiment [1] deals with SN12C renal.
The subject of experiment [2] is SF-295 CNS.
The subject of experiment [3] is MALME-3M melanoma.
The subject of experiment [4] is HCT-15 colon.
Experiment [5] relates to SK-MEL-5 melanoma.
Experiment [6] concerns COLO 205 colon.
For experiment [7], the system named is IGROV1 ovarian.
Experiment [8] has as its system HCC-2998 colon.
The test system of experiment [9] is UO-31 renal.
The subject of experiment [10] is TK-10 renal.

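96-well plates; 48 h exposure; 5 concentrations. Endpoints by linear interpolation between flanking doses. Not reached: highest tested concentration assigned. GI50 = concentration required for 50% inhibition of growth. TGI: concentration producing complete growth inhibition.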

Regarding `O=C(Nc1ccc(Cl)cc1)c1cc(-c2ccc(Cl)cc2)c2sc(=O)[nH]c2n1`, the GI50 in experiment [1] was 2.12 µM; in [2], 1.56 µM; in [3] it was 2.31 µM; in [4] it was 1.27 µM; in experiment [5] it was 0.687 µM; in experiment [6], 1.63 µM. Also, the GI50 is 2.83 µM in experiment [7], 2.17 µM in experiment [8] and 1.59 µM in experiment [9]. For the same compound, the TGI was determined as 20.1 µM in experiment [1]; 4.37 µM in experiment [2]; 6.25 µM in experiment [3]; 9.54 µM in experiment [4]; 2.99 µM in experiment [5]; 3.54 µM in experiment [6]. Moreover, the TGI in experiment [7] came out at 28.9 µM; in [8] it was 14.5 µM; in [9], 5.36 µM.
In the case of `CCOC(=O)C1SC(=Nc2ccc(Cl)c(Cl)c2)N=C1C` (centres undefined), the TGI in [1] was 53 µM; in experiment [2], greater than 100 µM; in experiment [3] it was greater than 100 µM; in [4] it was greater than 100 µM; in experiment [10], greater than 100 µM; in [6] it was 76.3 µM. Also, the TGI in [7], in experiment [8] and in experiment [9] was greater than 100 µM throughout.
For `COc1cccc(/C=C/c2cnc3ccccc3n2)c1OC`, the TGI was greater than 100 µM in experiment [1]; greater than 100 µM in experiment [2]; greater than 100 µM in experiment [3]; 92.7 µM in experiment [4]; 58.3 µM in [5]; greater than 100 µM in [10]. Further, the TGI in experiment [6], in experiment [7] and in [9] was greater than 100 µM in each case.
Regarding `Cc1cc(=O)oc2cc(OCc3c(F)cccc3Cl)ccc12`, the TGI in [1] was greater than 100 µM; in experiment [2], 52.9 µM; in experiment [3], greater than 100 µM; in experiment [5] it was greater than 100 µM; in experiment [10], greater than 100 µM; in experiment [7], greater than 100 µM. The TGI in experiment [9] was greater than 100 µM.
On to `O=C(c1ccco1)c1c(C(F)(F)F)n([O-])c2ccccc2[n+]1=O`, for which the GI50 is 0.618 µM in experiment [1]; 1.32 µM in [2]; 1.68 µM in experiment [3]; 0.785 µM in experiment [4]; 0.999 µM in experiment [5]; 1.49 µM in [10]. The GI50 was 3.32 µM in experiment [6], 0.549 µM in experiment [7] and 0.755 µM in experiment [9]. The TGI in experiment [1] came to 3.1 µM; in experiment [2], 7.69 µM; in [3], 8.02 µM; in [4] it was 3.85 µM; in experiment [5] it was 3.68 µM; in [10], 6.7 µM. For the same compound, the values for the TGI in [6], in experiment [7] and in experiment [9] were 28.5 µM, 1.21 µM and 2.03 µM, respectively.
As to `COc1ccccc1/C=N\N=C(N/N=C/c1ccccc1OC)N/N=C/c1ccccc1OC`, the GI50 in [1] is 3.35 µM; in experiment [2] it was 2.03 µM; in experiment [3], 3.73 µM; in experiment [4], 3.27 µM; in [5] it was 1.77 µM; in experiment [10] it was 6.01 µM. Besides, the GI50 in experiment [6] is 2.11 µM; in experiment [8], 3.82 µM; in experiment [9], 1.81 µM. The TGI in experiment [1] is 19.7 µM; in experiment [2], 5.11 µM; in experiment [3] it was 20.8 µM; in experiment [4], 18.3 µM; in experiment [5], 3.23 µM; in experiment [10], greater than 100 µM. Besides, the figures for the TGI in experiment [6], in experiment [8] and in [9] were 4.63 µM, greater than 100 µM and 7.25 µM, respectively.
On to `Nc1c(C(=O)Nc2ccccc2)[n+]([O-])c2ccccc2[n+]1[O-]`, for which the TGI in [1] was 31.4 µM; in experiment [2], 41.1 µM; in experiment [4], 28.2 µM; in experiment [5] it was 29.1 µM; in [10], 42.2 µM; in [6], 29.3 µM. Moreover, the TGI in experiment [7] was 44.8 µM; in [8] it was 32.2 µM; in [9] it was 42 µM.
Turning to `COc1cc(/C=C2\CN(C)C/C(=C\c3cc(CN4CCCCC4)c(O)c(OC)c3)C2=O)cc(CN2CCCCC2)c1O`, the GI50 in [1] was 3.24 µM; in experiment [2] it was 4.52 µM; in experiment [3], 5.62 µM; in experiment [4] it was 3.29 µM; in experiment [5] it was 13 µM; in [6] it was 1.96 µM. Moreover, the figures for the GI50 in [7], in experiment [8] and in experiment [9] were 3.36 µM, 2.61 µM and 3.78 µM, respectively. Besides, the TGI in experiment [1] was 12.8 µM; in [2], 17.1 µM; in [3], 19.6 µM; in [4], 12.7 µM; in experiment [5], 26.1 µM; in experiment [6] it was 3.74 µM. For the same compound, the figures for the TGI in experiment [7], in experiment [8] and in [9] were 13.6 µM, 12 µM and 17.7 µM, respectively.
In the case of `COc1ccc(/C=C\c2cc(OC)c(OC)c(OC)c2)cc1OC(=O)CCC(=O)O`, the TGI in [1] is greater than 100 µM; in experiment [2], 67.7 µM; in experiment [4], greater than 100 µM; in [10], greater than 100 µM; in experiment [6] it was 38.5 µM; in [7], greater than 100 µM. In [9], this compound showed a TGI greater than 100 µM. For the same compound, the GI50 in [5] is less than 0.0001 µM; in experiment [6] it was 1.68 µM; in [9], less than 0.0001 µM.
Regarding `COc1ccc2nc3cc(Cl)ccc3c(NCCCNCCC(C)O)c2c1` (centres undefined), the GI50 in experiment [2] is 0.276 µM; in experiment [3], 0.714 µM; in [4], 0.735 µM; in [10] it was 0.497 µM; in [6], 0.217 µM; in experiment [7] it was 0.39 µM. Besides, in experiment [9], the GI50 is 1.11 µM. Also, the TGI in experiment [2] was determined as 1.63 µM; in experiment [3], 2.21 µM; in experiment [4] it was 3.6 µM; in [10], 2.94 µM; in experiment [6] it was 1.29 µM; in [7], 2.47 µM. For the same compound, the TGI in experiment [9] came out at 3.27 µM.
`Fc1ccc(C2SCc3nc4ccccc4n32)cc1` (centres undefined): the TGI in [1] was greater than 100 µM; in experiment [2], greater than 100 µM; in experiment [3], 73.1 µM; in experiment [4], greater than 100 µM; in experiment [5], 38 µM; in [10], 72 µM. Also, the results for the TGI in [6], in experiment [7] and in [9] were greater than 100 µM, greater than 100 µM and 70.1 µM, respectively.
